How the values were obtained:
[1] = biological target: T1, neuraminidase (EC. 3.2.1.8, C. perfringens, SIGMA, N2876) (Clostridium perfringens, UniProt A0A0H2YQR1); format: biochemical; details: Lineweaver-Burk and Dixon plots
[2] = biological target: T1, neuraminidase (EC. 3.2.1.8, C. perfringens, SIGMA, N2876); format: biochemical

T1 sequence (A0A0H2YQR1 1-694): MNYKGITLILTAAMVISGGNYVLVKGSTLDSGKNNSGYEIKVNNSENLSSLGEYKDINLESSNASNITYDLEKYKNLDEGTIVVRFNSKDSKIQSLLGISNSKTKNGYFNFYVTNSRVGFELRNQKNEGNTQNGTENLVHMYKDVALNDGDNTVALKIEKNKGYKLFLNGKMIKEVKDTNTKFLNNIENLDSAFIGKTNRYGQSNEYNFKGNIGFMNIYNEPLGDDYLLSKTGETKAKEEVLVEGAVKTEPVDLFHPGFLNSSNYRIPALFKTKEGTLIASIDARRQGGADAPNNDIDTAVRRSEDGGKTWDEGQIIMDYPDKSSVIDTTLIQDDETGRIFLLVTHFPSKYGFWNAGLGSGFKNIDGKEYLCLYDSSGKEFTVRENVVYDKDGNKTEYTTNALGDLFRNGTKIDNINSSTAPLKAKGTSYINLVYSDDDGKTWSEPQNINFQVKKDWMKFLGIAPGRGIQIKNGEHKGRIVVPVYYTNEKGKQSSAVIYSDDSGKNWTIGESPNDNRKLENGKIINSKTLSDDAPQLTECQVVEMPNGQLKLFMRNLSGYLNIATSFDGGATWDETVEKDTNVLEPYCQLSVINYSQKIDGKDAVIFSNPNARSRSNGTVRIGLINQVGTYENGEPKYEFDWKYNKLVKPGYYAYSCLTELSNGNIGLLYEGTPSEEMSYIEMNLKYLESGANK

SMILES	Inhibition (type) [1]	IC50 [2] [µM]
COc1cc(C2Oc3cc(O)c(C/C=C(\C)CCC=C(C)C)c(O)c3C(=O)[C@@H]2O)ccc1O (stereo partly shown) [Compound 1, 3′-O-methyldiplacol]	Competitive	
COc1ccc(C2Oc3cc(O)c(C/C=C(\C)CCC=C(C)C)c(O)c3C(=O)[C@@H]2O)cc1O (stereo partly shown) [Compound 2, 4′-O-methyldiplacol]	Competitive	
COc1cc(C2CC(=O)c3c(cc(O)c(C/C=C(\C)CCC=C(C)C)c3O)O2)ccc1O (stereo not shown) [Compound 4, 3′-O-methyldiplacone]	Competitive	
COc1cc(C2CC(=O)c3c(cc(O)c(C/C=C(\C)CCC=C(C)C)c3O)O2)cc(OC)c1O (stereo not shown) [Compound 9, 6-geranyl-4′,5,7-trihydroxy-3′,5′-dimethoxyflavanone]	Competitive	
COc1c(O)cc(C2CC(=O)c3c(cc(O)c(C/C=C(\C)CCC=C(C)C)c3O)O2)cc1O (stereo not shown) [Compound 6, 6-geranyl-3′,5,5′,7-tetrahydroxy-4′-methoxyflavanone]	Competitive	
CC(C)=CCC/C(C)=C/Cc1c(O)cc2c(c1O)C(=O)CC(c1ccc(O)cc1)O2 (stereo not shown) [Compound 7, mimulone]	Competitive	
COc1ccc(C2CC(=O)c3c(cc(O)c(C/C=C(\C)CCC=C(C)C)c3O)O2)cc1O (stereo not shown) [Compound 5, 4′-O-methyldiplacone]	Competitive	12.9 ± 0.4
CC(C)=CCC/C(C)=C/Cc1c(O)cc2c(c1O)C(=O)CC(c1ccc(O)c(O)c1)O2 (stereo not shown) [Compound 8, diplacone]	Competitive	0.11 ± 0.003
